Activity calls are given as the source filed them. No cut-off for these calls is given here.
Assays:
[1] = biological target: T1, Glutaminase kidney isoform, mitochondrial (Homo sapiens, UniProt O94925); assay: Allosteric inhibition of human KGA assessed as reduction in glutamate formation using glutamine as substrate pretreated with enzyme for 15 mins followed by substrate addition and measured after 3 hrs by KGA/GDH coupled assay
T1 sequence (O94925 whole entry): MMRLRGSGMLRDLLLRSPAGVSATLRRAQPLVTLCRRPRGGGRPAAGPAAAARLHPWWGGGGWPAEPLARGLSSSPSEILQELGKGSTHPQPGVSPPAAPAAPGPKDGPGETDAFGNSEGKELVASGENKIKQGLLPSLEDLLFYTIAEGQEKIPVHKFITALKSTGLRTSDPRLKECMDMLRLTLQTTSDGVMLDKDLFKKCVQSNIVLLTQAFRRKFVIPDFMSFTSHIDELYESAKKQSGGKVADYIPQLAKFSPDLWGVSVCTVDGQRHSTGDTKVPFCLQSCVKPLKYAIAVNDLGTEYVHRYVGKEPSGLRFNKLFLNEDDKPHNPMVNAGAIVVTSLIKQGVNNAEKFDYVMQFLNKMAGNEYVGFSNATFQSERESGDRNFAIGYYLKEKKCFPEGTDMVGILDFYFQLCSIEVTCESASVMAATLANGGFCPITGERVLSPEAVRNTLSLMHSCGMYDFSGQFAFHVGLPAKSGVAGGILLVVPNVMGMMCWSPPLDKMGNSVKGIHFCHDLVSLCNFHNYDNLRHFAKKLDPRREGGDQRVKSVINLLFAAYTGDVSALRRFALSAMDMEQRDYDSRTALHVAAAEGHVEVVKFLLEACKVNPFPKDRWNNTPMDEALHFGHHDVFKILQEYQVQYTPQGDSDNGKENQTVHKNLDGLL

[2] = biological target: T2, Glutaminase kidney isoform, mitochondrial (Homo sapiens) (UniProt O94925); assay: Binding affinity to human KGA assessed as dissociation rate constant at 33 uM
T2 sequence (whole entry): T1 sequence (O94925 whole entry)

[3] = biological target: T2, Glutaminase kidney isoform, mitochondrial (Homo sapiens); assay: Competitive binding affinity to human KGA after 1 hr in presence of ebselen by biolayer interferometry
[4] = biological target: T2, Glutaminase kidney isoform, mitochondrial (Homo sapiens); assay: Binding affinity to human KGA assessed as association rate constant at 33 uM
[5] = biological target: T1, Glutaminase kidney isoform, mitochondrial; assay: Binding affinity to human KGA assessed as dissociation constant
[6] = biological target: T2, Glutaminase kidney isoform, mitochondrial (Homo sapiens); assay: Competitive binding affinity to human KGA in presence of BPTES by biolayer interferometry

COc1ccc2[se]n(CCCCCCn3[se]c4ccc(OCCCCC[C@@H]5SC[C@@H]6NC(=O)N[C@@H]65)cc4c3=O)c(=O)c2c1
IC50 [1]: 73 nM | Kdiss [2]: 2 ×10⁻³ /s | Activity [3]: inactive | Ka [4]: 1.4 ×10⁴ /Ms | Kd [5]: 142 nM | Activity [6]: Active
